According to PubChem BioAssay (NCI):
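Each compound was tested at five concentrations against cells in 96-well plates for 48 hours. GI50: concentration for 50% inhibition of growth. TGI: total growth inhibition.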

What was measured:
Experiment in all cases: growth of human tumour cells (NCI), 48 h
[1] = test system: SF-268 CNS
[2] = test system: OVCAR-5 ovarian
[3] = test system: HOP-62 NSCLC
[4] = test system: M14 melanoma
[5] = test system: HCT-15 colon
[6] = test system: HOP-92 NSCLC
[7] = test system: UACC-62 melanoma
[8] = test system: U251 CNS
[9] = test system: SF-295 CNS
[10] = test system: OVCAR-8 ovarian
[11] = test system: UO-31 renal
[12] = test system: A498 renal
[13] = test system: PC-3 prostate
[14] = test system: LOX IMVI melanoma
[15] = test system: SW-620 colon
[16] = test system: SNB-75 CNS
[17] = test system: ACHN renal
[18] = test system: RPMI-8226 leukemia
[19] = test system: MALME-3M melanoma
[20] = test system: BT-549 breast
[21] = test system: HCC-2998 colon
[22] = test system: NCI-H226 lung
[23] = test system: DU-145 prostate
[24] = test system: NCI/ADR-RES ovarian
[25] = test system: T-47D breast
[26] = test system: HT29 colon
[27] = test system: NCI-H460 lung
[28] = test system: A549 NSCLC
[29] = test system: CAKI-1 renal
[30] = test system: OVCAR-3 ovarian
[31] = test system: SK-OV-3 ovarian
[32] = test system: SK-MEL-28 melanoma
[33] = test system: NCI-H522 lung
[34] = test system: EKVX NSCLC
[35] = test system: SF-539 CNS
[36] = test system: SK-MEL-5 melanoma
[37] = test system: HL-60(TB) leukemia
[38] = test system: MDA-MB-435
[39] = test system: SN12C renal
[40] = test system: RXF 393 renal
[41] = test system: UACC-257 melanoma
[42] = test system: HS 578T breast
[43] = test system: TK-10 renal
[44] = test system: COLO 205 colon
[45] = test system: SNB-19 CNS
[46] = test system: IGROV1 ovarian
[47] = test system: MDA-MB-231 breast
[48] = test system: K-562 leukemia
[49] = test system: MCF7 breast
[50] = test system: NCI-H23 lung
[51] = test system: HCT-116 colon
[52] = test system: KM12 colon
[53] = test system: 786-0 renal
[54] = test system: OVCAR-4 ovarian
[55] = test system: SK-MEL-2 melanoma

## CCCCCCCCCCCCOC1C(C(COC2OC(C(O)CO)C3OC(C)(C)OC23)OC(=O)Nc2ccc([N+](=O)[O-])cc2)OC2OC(C)(C)OC21 (stereo not given)
[1]
  GI50: 7.34 µM
  TGI: 22.1 µM
[2]
  GI50: 5.41 µM
  TGI: 19.1 µM
[3]
  GI50: 1.95 µM
  TGI: 3.8 µM
[4]
  GI50: 1.81 µM
  TGI: 3.44 µM
[5]
  GI50: 3.3 µM
  TGI: 11.1 µM
[6]
  GI50: 3.82 µM
  TGI: 14.7 µM
[7]
  GI50: 2.06 µM
  TGI: 4.61 µM
[8]
  GI50: 1.85 µM
  TGI: 3.59 µM
[9]
  GI50: 2.21 µM
  TGI: 5.48 µM
[10]
  GI50: 3.59 µM
  TGI: 14.5 µM
[11]
  GI50: 3.62 µM
  TGI: 12.9 µM
[12]
  GI50: 2.63 µM
  TGI: 6.09 µM
[13]
  GI50: 2.42 µM
  TGI: 5.63 µM
[14]
  GI50: 2 µM
  TGI: 3.79 µM
[15]
  GI50: 1.79 µM
  TGI: 3.33 µM
[16]
  GI50: 3.64 µM
  TGI: 16.1 µM
[17]
  GI50: 3.4 µM
  TGI: 10.6 µM
[18]
  GI50: 2.7 µM
  TGI: 7.2 µM
[19]
  GI50: 3.16 µM
  TGI: 9.64 µM
[20]
  GI50: 1.9 µM
  TGI: 5.57 µM
[21]
  GI50: 11.6 µM
  TGI: 25.1 µM
[22]
  GI50: 2.98 µM
  TGI: 11.2 µM
[23]
  GI50: 2.52 µM
  TGI: 7.17 µM
[24]
  GI50: 12.3 µM
  TGI: 26.5 µM
[25]
  GI50: 4.71 µM
  TGI: 16.9 µM
[26]
  GI50: 2.57 µM
  TGI: 7.94 µM
[27]
  GI50: 3.74 µM
  TGI: 13.5 µM
[28]
  GI50: 3.36 µM
  TGI: 10.7 µM
[29]
  GI50: 2.55 µM
  TGI: 7.28 µM
[30]
  GI50: 1.65 µM
  TGI: 3.14 µM
[31]
  GI50: 15.9 µM
  TGI: 30.8 µM
[32]
  GI50: 9.84 µM
  TGI: 22.7 µM
[33]
  GI50: 1.92 µM
  TGI: 3.9 µM
[34]
  GI50: 2.34 µM
  TGI: 6.21 µM
[35]
  GI50: 4.15 µM
  TGI: 14.7 µM
[36]
  GI50: 1.71 µM
  TGI: 3.11 µM
[37]
  GI50: 3.36 µM
  TGI: 8.92 µM
[38]
  GI50: 1.84 µM
  TGI: 3.68 µM
[39]
  GI50: 1.78 µM
  TGI: 3.52 µM
[40]
  GI50: 2.71 µM
  TGI: 6.57 µM
[41]
  GI50: 3.53 µM
  TGI: 9.35 µM
[42]
  GI50: 1.88 µM
  TGI: 3.74 µM
[43]
  GI50: 2.68 µM
  TGI: 7.29 µM
[44]
  GI50: 7.28 µM
  TGI: 23.9 µM
[45]
  GI50: 9.43 µM
  TGI: 21.8 µM
[46]
  GI50: 2.34 µM
  TGI: 5.73 µM
[47]
  GI50: 2.6 µM
  TGI: 7.2 µM
[48]
  GI50: 3.87 µM
  TGI: 16.8 µM
[49]
  GI50: 2.69 µM
  TGI: 8.6 µM
[50]
  GI50: 12.6 µM
  TGI: 28.2 µM
[51]
  GI50: 1.77 µM
  TGI: 3.45 µM
[52]
  GI50: 2 µM
  TGI: 4.1 µM
[53]
  GI50: 1.7 µM
  TGI: 3.15 µM
[54]
  GI50: 7.09 µM
  TGI: 23.5 µM
[55]
  GI50: 2.09 µM
  TGI: 5.09 µM
